Source: patent US20240400561A1, “NOVEL SUBSTITUTED SULFONYLUREA COMPOUNDS AS INHIBITORS OF INTERLEUKIN-1 ACTIVITY” (Viva Star Biosciences (Suzhou) Co., Ltd., priority 2021, published 2024)

Molecular target: T1, NLRP3 (Homo sapiens, UniProt Q96P20)
T1 construct: Seed THP-1 cells (5.56*10^5 cells/mL) containing 1.0 ug/mL LPS; endogenous in cells; host or cells: THP-1 cells
Test: THP-1 cell assay (LPS priming, nigericin), IL1β release by HTRF; called pyroptosis assay, THP IC50
Assay type: cell-based
Details: NLRP3 inhibitory activity; THP-1 cells, 1.0 ug/mL LPS, compound 3 hrs, nigericin 5 uM 1 hr, IL1β in supernatant
Procedure: The following method was used for compound screening. • 1. Seed THP-1 cells (5.56*10^5 cells/mL) containing 1.0 ug/mL LPS (SIGMA, L6529) in 45 uL RPMI 1640 medium (without FBS) into 384-well plate (Thermo Scientific, 164688). • 2. Add 5 uL compound (10 doses starting from 5 uM, 1:3 dilution) or vehicle (0.05% DMSO in medium) to the appropriate wells. • 3. Centrifuge the plates at 1000 rpm for 2 mins and incubate for 3 hrs at 37° C., 5% CO2. • 4. Add 5 uL nigericin (MEC, HY-100381) (final conc. 5 uM) to sample wells and positive control wells; add 5 uL RPMI 1640 medium to negative control wells. • 5. Centrifuge plates at 1000 rpm for 2 mins and incubate for 1 hr at 37° C., 5% CO2. • 6. At the end of the incubation period, centrifuge plates at 1000 rpm for 6 mins and transfer 8 uL supernatant into 384-well assay plates (PerkinElmer, 6008280). • 7. Add 8 ul RPMI 1640 medium into each well and spin down for 10 secs. • 8. Prepare the standard solutions and pre-mixed IL1β antibody solution of Human […] kits (PerkinElmer, 62HIL1BPEH) according to the instruction. • 9. Add 16 uL standard solutions into clear wells of 384-well assay plates. • 10. Add 4 uL pre-mixed IL1β antibody solution to all wells including sample wells, positive control wells, negative control wells and standard solutions wells. • 11. Seal the plates, spin down for 10 secs, incubation for overnight at RT and read on an HTRF® compatible reader (BMG LABTECH, PHERAstar FS). • 12. The concentrations of IL1β for treated wells are calculated by the standard curve. • 13. The IC50 data is fitted to a non-liner regression equation (log inhibitor vs. response—Variable slope four parameters)).

T1 sequence (Q96P20 whole entry): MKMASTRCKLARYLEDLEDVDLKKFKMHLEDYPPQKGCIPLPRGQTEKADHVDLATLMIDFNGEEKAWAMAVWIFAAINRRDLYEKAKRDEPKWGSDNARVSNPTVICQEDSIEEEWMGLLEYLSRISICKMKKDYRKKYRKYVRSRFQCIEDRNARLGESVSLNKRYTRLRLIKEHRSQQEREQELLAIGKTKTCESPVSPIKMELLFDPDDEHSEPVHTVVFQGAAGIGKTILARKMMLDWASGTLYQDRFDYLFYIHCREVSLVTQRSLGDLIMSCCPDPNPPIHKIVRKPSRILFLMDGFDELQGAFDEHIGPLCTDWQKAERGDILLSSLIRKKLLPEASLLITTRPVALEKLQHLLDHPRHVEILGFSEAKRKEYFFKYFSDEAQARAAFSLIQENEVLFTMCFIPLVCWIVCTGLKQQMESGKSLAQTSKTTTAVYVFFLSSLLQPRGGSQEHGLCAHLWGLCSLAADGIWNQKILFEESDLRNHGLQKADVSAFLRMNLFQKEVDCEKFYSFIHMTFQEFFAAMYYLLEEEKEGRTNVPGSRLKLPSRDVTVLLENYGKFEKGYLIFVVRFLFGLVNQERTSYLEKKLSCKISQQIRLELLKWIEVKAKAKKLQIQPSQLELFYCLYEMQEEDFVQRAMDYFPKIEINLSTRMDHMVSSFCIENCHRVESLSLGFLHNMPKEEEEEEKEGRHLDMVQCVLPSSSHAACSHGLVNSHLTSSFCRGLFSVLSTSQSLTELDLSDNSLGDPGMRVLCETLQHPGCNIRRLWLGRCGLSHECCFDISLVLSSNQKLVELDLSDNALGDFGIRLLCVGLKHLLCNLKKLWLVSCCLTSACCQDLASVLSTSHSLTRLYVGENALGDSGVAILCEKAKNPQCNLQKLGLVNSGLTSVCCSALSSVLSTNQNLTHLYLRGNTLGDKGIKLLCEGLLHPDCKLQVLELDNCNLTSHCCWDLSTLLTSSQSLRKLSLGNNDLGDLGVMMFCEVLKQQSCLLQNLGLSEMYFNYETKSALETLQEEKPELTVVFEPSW

| Structure (SMILES) | IC50 [nM] |
| --- | --- |
| Cc1cc2c(c(NC(=O)NS(=O)(=O)c3cc(C(C)(C)O)cs3)c1-c1ccn3nccc3c1)CCC2 [Example 70, 4-(2-hydroxypropan-2-yl)-N-((6-methyl-5-(pyrazolo[1,5-a]pyridin-5-yl)-2,3-dihydro-1H-inden-4-yl)carbamoyl)thiophene-2-sulfonamide] | ≤ 30 |
| CC(C)(O)c1csc(S(=O)(=O)NC(=O)Nc2c(-c3ccc4nncn4c3)ccc3c2CCC3)c1 [Example 61] | 300 to 1000 |
| CC(C)(O)c1csc(S(=O)(=O)NC(=O)Nc2c(-c3ccc4ccnn4c3)ccc3c2CCC3)c1 [Example 68, 4-(2-hydroxypropan-2-yl)-N-((5-(pyrazolo[1,5-a]pyridin-6-yl)-2,3-dihydro-1H-inden-4-yl)carbamoyl)thiophene-2-sulfonamide] | ≤ 30 |
| CC(C)(O)c1csc(S(=O)(=O)NC(=O)Nc2c(-c3ccn4cnnc4c3)ccc3c2CCC3)c1 [Example 63, N-((5-([1,2,4]triazolo[4,3-a]pyridin-7-yl)-2,3-dihydro-1H-inden-4-yl)carbamoyl)-4-(2-hydroxypropan-2-yl)thiophene-2-sulfonamide] | ≤ 30 |
| Cc1cc2c(c(NC(=O)NS(=O)(=O)c3cncc(OC4CCC4)c3)c1-c1ccn3nccc3c1)CCC2 [Example 35, 5-cyclobutoxy-N-((6-methyl-5-(pyrazolo[1,5-a]pyridin-5-yl)-2,3-dihydro-1H-inden-4-yl)carbamoyl)pyridine-3-sulfonamide] | ≤ 30 |
| CN(c1cncc(S(=O)(=O)NC(=O)Nc2c(-c3ccn4nccc4c3)ccc3c2CCC3)c1)C1CC1 [Example 30, 5-(cyclopropyl(methyl)amino)-N-((5-(pyrazolo[1,5-a]pyridin-5-yl)-2,3-dihydro-1H-inden-4-yl)carbamoyl)pyridine-3-sulfonamide] | 30 to 300 |
| Cc1cc2c(c(NC(=O)NS(=O)(=O)c3ccn(C4CC4)n3)c1-c1ccc3ccnn3c1)CCC2 [Example 92, 1-cyclopropyl-N-((6-methyl-5-(pyrazolo[1,5-a]pyridin-6-yl)-2,3-dihydro-1H-inden-4-yl)carbamoyl)-1H-pyrazole-3-sulfonamide] | 30 to 300 |
| Cc1cc2c(c(NC(=O)NS(=O)(=O)c3cnn(C4CC4)c3)c1-c1ccn3nccc3c1)CCC2 [Example 14, 1-cyclopropyl-N-((6-methyl-5-(pyrazolo[1,5-a]pyridin-5-yl)-2,3-dihydro-1H-inden-4-yl)carbamoyl)-1H-pyrazole-4-sulfonamide] | ≤ 30 |
| CC(C)(O)c1csc(S(=O)(=O)NC(=O)Nc2c(-c3ccnc4c3ccn4C3CCOCC3)ccc3c2CCC3)c1 [Example 56, 4-(2-hydroxypropan-2-yl)-N-((5-(1-(tetrahydro-2H-pyran-4-yl)-1H-pyrrolo[2,3-b]pyridin-4-yl)-2,3-dihydro-1H-inden-4-yl)carbamoyl)thiophene-2-sulfonamide] | 30 to 300 |
| O=C(Nc1c2c(cc(F)c1-c1ccn3nccc3c1)CCC2)NS(=O)(=O)c1ccn(CC2CC2)n1 [Example 24, 1-(cyclopropylmethyl)-N-((6-fluoro-5-(pyrazolo[1,5-a]pyridin-5-yl)-2,3-dihydro-1H-inden-4-yl)carbamoyl)-1H-pyrazole-3-sulfonamide] | ≤ 30 |
| Cc1cc2c(c(NC(=O)NS(=O)(=O)c3ccn(C4CCC4)n3)c1-c1ccn3nccc3c1)CCC2 [Example 23, 1-cyclobutyl-N-((6-methyl-5-(pyrazolo[1,5-a]pyridin-5-yl)-2,3-dihydro-1H-inden-4-yl)carbamoyl)-1H-pyrazole-3-sulfonamide] | ≤ 30 |
| O=C(Nc1c(-c2ccnc3[nH]ccc23)ccc2c1CCC2)NS(=O)(=O)c1cnn(CC2CC2)c1 [Example 5, N-((5-(1H-pyrrolo[2,3-b]pyridin-4-yl)-2,3-dihydro-1H-inden-4-yl)carbamoyl)-1-(cyclopropylmethyl)-1H-pyrazole-4-sulfonamide] | ≤ 30 |
| O=C(Nc1c2c(cc(F)c1-c1ccn3nccc3c1)CCO2)NS(=O)(=O)c1ccn(C2CC2)n1 [Example 87, 1-cyclopropyl-N-((5-fluoro-6-(pyrazolo[1,5-a]pyridin-5-yl)-2,3-dihydrobenzofuran-7-yl)carbamoyl) 1H-pyrazole-3-sulfonamide] | 300 to 1000 |
| CC(C)(O)c1csc(S(=O)(=O)NC(=O)Nc2c(-c3ccc4nccn4c3)ccc3c2CCC3)c1 [Example 51, 4-(2-hydroxypropan-2-yl)-N-((5-(imidazo[1,2-a]pyridin-6-yl)-2,3-dihydro-1H-inden-4-yl)carbamoyl)thiophene-2-sulfonamide] | ≤ 30 |
| CO[C@@H](C)Cn1ccc(S(=O)(=O)NC(=O)Nc2c3c(cc(C)c2-c2ccn4nccc4c2)CCC3)n1 [Example 26, (S)-1-(2-methoxypropyl)-N-((6-methyl-5-(pyrazolo[1,5-a]pyridin-5-yl)-2,3-dihydro-1H-inden-4-yl)carbamoyl)-1H-pyrazole-3-sulfonamide] | ≤ 30 |
| Cn1ccc2cc(-c3ccc4c(c3NC(=O)NS(=O)(=O)c3cc(C(C)(C)O)cs3)CCC4)cnc21 [Example 44, 4-(2-hydroxypropan-2-yl)—N-((5-(1-methyl-1H-pyrrolo[2,3-b]pyridin-5-yl)-2,3-dihydro-1H-inden-4-yl)carbamoyl)thiophene-2-sulfonamide] | 30 to 300 |

Results, then the compound that gave them:

| IC50 [nM] | Structure (SMILES) |
| --- | --- |
| ≤ 30 | O=C(Nc1c2c(cc(Cl)c1-c1ccn3nccc3c1)CCC2)NS(=O)(=O)c1ccn(C2CC2)n1 [Example 89, N-((6-chloro-5-(pyrazolo[1,5-a]pyridin-5-yl)-2,3-dihydro-1H-inden-4-yl)carbamoyl)-1-cyclopropyl-1H-pyrazole-3-sulfonamide] |
| ≤ 30 | CC(C)(O)c1csc(S(=O)(=O)NC(=O)Nc2c(-c3ccnc4[nH]ccc34)ccc3c2CCC3)c1 [Example 40, N-((5-(1H-pyrrolo[2,3-b]pyridin-4-yl)-2,3-dihydro-1H-inden-4-yl)carbamoyl)-4-(2-hydroxypropan-2-yl)thiophene-2-sulfonamide] |
| 30 to 300 | CC(C)(O)c1csc(S(=O)(=O)NC(=O)Nc2c(-c3ccnc4c3ccn4C3CCOC3)ccc3c2CCC3)c1 (centres unmarked) [Example 58, 4-(2-hydroxypropan-2-yl)-N-((5-(1-(tetrahydrofuran-3-yl)-1H-pyrrolo[2,3-b]pyridin-4-yl)-2,3-dihydro-1H-inden-4-yl)carbamoyl)thiophene-2-sulfonamide] |
| ≤ 30 | Cc1cc2c(c(NC(=O)NS(=O)(=O)c3cnn(CC4CC4)c3)c1-c1ccnc3[nH]ccc13)CCC2 [Example 8, 1-(cyclopropylmethyl)-N-((6-methyl-5-(1H-pyrrolo[2,3-b]pyridin-4-yl)-2,3-dihydro-1H-inden-4-yl)carbamoyl)-1H-pyrazole-4-sulfonamide] |
| ≤ 30 | Cc1cc2c(c(NC(=O)NS(=O)(=O)c3cc(C(C)(C)O)cs3)c1-c1ccn3cncc3c1)CCC2 [Example 69, 4-(2-hydroxypropan-2-yl)-N-((5-(imidazo[1,5-a]pyridin-7-yl)-6-methyl-2,3-dihydro-1H-inden-4-yl)carbamoyl)thiophene-2-sulfonamide] |
| 30 to 300 | Cc1cc2c(c(NC(=O)NS(=O)(=O)c3ccn(C[C@@H]4CCO4)n3)c1-c1ccn3ncnc3c1)CCC2 [Example 94, (S)—N-((5-([1,2,4]triazolo[1,5-a]pyridin-7-yl)-6-methyl-2,3-dihydro-1H-inden-4-yl)carbamoyl)-1-(oxetan-2-ylmethyl)-1H-pyrazole-3-sulfonamide] |
| ≤ 30 | Cc1cc2c(c(NC(=O)NS(=O)(=O)c3cc(C(O)C4CC4)n(C)n3)c1-c1ccn3nccc3c1)CCC2 (centres unmarked) [Example 16, 5-(cyclopropyl(hydroxy)methyl)-1-methyl-N-((6-methyl-5-(pyrazolo[1,5-a]pyridin-5-yl)-2,3-dihydro-1H-inden-4-yl)carbamoyl)-1H-pyrazole-3-sulfonamide] |
| ≤ 30 | O=C(Nc1c2c(cc(Cl)c1-c1ccn3cnnc3c1)CCC2)NS(=O)(=O)c1ccn(C2CC2)n1 [Example 96, N-((5-([1,2,4]triazolo[4,3-a]pyridin-7-yl)-6-chloro-2,3-dihydro-1H-inden-4-yl)carbamoyl)-1-cyclopropyl-1H-pyrazole-3-sulfonamide] |
| ≤ 30 | Cc1cc2c(c(NC(=O)NS(=O)(=O)c3ccn(C4CC(O)C4)n3)c1-c1ccn3nccc3c1)CCC2 (centres unmarked) [Example 76, 1-(3-hydroxycyclobutyl)-N-((6-methyl-5-(pyrazolo[1,5-a]pyridin-5-yl)-2,3-dihydro-1H-inden-4-yl)carbamoyl)-1H-pyrazole-3-sulfonamide] |
| ≤ 30 | Cc1cc2c(c(NC(=O)NS(=O)(=O)c3cnn(CC4CC4)c3)c1-c1ccc3ccnn3c1)CCC2 [Example 21, 1-(cyclopropylmethyl)-N-((6-methyl-5-(pyrazolo[1,5-a]pyridin-6-yl)-2,3-dihydro-1H-inden-4-yl)carbamoyl)-1H-pyrazole-4-sulfonamide] |
